Measured values from the supplement of paper PMC12463676, “Small-molecule dissolution of stress granules by redox modulation benefits ALS models” (Nature Chemical Biology, 2025).

Key:
[1] = compound: NC(=O)CCCCC1CCSS1 [lipoamide]; assay: thermal stability z-score vs DMSO; higher = more thermally stabilized by treatment; details: HeLa, lipoamide concentration 100 µM
Protocol: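 Cellular thermal proteome profiling in HeLa cells. Cells were treated with 100 µM lipoamide for 1 h, with or without 1 mM arsenate for a further 1 h, then heated to ten temperatures (37-66.3 °C), and soluble protein was quantified by TMT mass spectrometry relative to 0.1% DMSO controls. The thermal stability score (sum of log2 fold changes minus the abundance score) was transformed to a z-score; mean of n = 3 experiments.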

[2] = compound: O=[As]([O-])(O)O.[K+] [potassium arsenate]; assay: as above; details: HeLa; arsenate concentration 1 mM
Protocol: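 Cellular thermal proteome profiling in HeLa cells treated with 1 mM arsenate for 1 h (DMSO pretreatment), heated to ten temperatures (37-66.3 °C). Soluble protein was quantified by TMT mass spectrometry relative to DMSO controls; the thermal stability score was transformed to a z-score; mean of n = 3 experiments.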

[3] = arsenate co-treatment: 1 mM arsenate 1 h
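Note: each temperature applied for 3 min, abundance score taken as mean log2 fold change at the two lowest temperatures, z-score obtained by mean subtraction and division by SD.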

Sequence of UniProt P06733 (P06733 whole entry): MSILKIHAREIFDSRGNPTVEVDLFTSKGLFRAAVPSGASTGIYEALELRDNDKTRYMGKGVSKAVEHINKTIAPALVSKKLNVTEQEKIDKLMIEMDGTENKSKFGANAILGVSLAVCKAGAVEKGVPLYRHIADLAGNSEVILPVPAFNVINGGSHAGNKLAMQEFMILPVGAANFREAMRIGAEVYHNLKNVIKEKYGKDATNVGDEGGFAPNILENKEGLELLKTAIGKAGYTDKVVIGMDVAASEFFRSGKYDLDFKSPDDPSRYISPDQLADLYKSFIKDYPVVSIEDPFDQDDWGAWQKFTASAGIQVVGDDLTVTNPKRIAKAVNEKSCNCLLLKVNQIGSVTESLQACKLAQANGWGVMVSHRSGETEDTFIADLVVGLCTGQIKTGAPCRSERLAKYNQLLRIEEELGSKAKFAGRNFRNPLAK
Sequence of UniProt Q6IAA8 (Q6IAA8 whole entry): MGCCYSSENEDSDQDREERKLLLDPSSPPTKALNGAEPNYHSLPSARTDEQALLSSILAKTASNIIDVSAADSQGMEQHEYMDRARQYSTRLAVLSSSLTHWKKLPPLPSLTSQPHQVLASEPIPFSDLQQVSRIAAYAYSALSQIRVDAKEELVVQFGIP
Sequence of UniProt Q99715 (Q99715 whole entry): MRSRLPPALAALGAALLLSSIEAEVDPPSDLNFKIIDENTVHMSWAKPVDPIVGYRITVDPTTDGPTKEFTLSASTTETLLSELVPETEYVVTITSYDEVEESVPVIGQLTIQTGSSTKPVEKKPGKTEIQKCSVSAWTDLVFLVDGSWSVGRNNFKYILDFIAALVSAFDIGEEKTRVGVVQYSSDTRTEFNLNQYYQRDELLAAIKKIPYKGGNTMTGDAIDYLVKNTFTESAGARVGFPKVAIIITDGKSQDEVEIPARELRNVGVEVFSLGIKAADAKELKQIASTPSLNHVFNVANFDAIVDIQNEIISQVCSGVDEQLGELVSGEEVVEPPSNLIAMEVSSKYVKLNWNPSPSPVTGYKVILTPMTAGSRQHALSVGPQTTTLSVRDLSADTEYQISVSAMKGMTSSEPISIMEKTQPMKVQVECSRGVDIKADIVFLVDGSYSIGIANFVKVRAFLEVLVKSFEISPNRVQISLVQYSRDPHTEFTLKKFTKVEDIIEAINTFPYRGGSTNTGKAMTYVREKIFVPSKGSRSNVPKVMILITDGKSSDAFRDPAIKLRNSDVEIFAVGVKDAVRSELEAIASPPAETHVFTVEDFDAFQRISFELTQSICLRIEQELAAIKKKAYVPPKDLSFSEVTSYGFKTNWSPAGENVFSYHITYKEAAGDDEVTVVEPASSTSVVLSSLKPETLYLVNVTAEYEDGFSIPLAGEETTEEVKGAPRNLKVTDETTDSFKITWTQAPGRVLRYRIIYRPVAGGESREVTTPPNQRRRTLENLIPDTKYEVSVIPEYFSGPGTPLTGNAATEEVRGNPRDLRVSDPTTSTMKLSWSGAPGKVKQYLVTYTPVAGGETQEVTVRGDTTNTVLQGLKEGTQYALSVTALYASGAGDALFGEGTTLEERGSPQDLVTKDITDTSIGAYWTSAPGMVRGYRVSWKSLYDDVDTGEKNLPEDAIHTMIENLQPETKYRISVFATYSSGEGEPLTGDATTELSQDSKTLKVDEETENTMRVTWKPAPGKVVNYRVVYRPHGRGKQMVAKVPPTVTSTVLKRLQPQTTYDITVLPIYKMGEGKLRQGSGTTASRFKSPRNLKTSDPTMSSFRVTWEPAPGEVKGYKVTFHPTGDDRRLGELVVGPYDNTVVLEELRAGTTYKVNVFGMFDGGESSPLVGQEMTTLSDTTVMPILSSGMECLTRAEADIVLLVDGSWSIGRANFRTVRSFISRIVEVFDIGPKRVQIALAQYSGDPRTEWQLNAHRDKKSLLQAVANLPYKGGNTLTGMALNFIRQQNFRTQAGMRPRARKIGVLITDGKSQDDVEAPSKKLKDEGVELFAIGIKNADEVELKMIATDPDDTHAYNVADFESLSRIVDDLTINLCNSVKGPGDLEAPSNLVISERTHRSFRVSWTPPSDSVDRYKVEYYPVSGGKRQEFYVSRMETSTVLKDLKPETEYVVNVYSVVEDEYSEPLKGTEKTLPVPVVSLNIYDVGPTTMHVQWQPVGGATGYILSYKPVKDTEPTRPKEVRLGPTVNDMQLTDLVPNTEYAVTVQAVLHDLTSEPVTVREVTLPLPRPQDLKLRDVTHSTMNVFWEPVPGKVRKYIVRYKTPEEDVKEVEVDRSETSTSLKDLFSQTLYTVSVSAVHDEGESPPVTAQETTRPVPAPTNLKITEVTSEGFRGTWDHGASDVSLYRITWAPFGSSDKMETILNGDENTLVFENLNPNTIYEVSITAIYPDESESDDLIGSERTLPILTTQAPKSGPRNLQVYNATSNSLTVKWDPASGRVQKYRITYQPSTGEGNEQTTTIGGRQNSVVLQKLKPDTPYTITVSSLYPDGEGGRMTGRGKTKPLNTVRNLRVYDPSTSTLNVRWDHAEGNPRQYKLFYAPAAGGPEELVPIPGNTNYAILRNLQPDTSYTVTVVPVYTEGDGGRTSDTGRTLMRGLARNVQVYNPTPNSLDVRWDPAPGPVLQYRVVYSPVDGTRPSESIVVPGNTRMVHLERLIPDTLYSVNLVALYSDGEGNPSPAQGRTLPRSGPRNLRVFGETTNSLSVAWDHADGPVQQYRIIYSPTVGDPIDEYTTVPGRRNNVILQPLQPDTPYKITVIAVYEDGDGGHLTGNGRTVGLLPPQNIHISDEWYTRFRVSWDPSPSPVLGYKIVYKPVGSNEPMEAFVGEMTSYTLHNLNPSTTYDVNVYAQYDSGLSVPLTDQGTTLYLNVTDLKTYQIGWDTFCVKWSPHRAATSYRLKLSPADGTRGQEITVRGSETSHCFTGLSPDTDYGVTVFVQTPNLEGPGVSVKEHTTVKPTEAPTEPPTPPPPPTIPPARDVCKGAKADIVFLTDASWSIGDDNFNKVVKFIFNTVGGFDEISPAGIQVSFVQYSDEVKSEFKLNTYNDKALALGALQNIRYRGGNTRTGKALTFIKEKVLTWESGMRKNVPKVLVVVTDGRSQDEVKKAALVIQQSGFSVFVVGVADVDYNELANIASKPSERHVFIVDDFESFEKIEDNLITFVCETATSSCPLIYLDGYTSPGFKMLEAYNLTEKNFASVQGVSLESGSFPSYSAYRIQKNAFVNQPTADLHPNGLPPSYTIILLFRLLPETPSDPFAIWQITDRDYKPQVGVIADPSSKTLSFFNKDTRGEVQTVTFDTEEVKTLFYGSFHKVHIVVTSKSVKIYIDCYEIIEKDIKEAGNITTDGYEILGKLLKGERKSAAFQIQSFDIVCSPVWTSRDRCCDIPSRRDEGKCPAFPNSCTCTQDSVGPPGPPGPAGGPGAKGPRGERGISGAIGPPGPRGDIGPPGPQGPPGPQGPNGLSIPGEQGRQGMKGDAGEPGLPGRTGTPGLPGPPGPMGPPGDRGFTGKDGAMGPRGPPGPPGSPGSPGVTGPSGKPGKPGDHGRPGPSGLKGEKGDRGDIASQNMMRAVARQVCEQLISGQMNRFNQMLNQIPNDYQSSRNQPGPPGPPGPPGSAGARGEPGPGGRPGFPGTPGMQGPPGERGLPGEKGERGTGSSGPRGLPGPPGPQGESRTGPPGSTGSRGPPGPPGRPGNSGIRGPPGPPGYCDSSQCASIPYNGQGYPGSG
Sequence of UniProt Q8TCS8 (Q8TCS8 whole entry): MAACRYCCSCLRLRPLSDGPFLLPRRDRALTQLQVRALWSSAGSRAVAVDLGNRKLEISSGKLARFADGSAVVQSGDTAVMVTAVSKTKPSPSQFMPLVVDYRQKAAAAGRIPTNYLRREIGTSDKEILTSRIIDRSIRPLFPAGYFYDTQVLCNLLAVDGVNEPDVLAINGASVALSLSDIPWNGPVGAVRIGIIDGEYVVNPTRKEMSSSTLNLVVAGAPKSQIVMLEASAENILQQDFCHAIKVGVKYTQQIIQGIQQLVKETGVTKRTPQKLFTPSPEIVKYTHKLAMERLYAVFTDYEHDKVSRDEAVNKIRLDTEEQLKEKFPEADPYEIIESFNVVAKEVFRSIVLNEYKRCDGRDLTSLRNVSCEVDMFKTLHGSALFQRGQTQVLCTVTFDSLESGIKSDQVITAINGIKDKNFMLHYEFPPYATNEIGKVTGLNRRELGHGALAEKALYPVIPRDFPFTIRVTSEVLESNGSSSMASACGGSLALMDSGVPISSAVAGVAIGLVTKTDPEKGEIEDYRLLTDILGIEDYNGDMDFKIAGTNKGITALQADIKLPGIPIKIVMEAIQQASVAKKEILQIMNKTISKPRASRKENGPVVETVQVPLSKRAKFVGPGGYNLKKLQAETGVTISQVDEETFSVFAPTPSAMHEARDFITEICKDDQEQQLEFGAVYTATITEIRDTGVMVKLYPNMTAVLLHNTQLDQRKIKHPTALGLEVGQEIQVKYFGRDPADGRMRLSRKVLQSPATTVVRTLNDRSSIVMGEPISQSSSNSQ
Sequence of UniProt Q9Y6D0 (Q9Y6D0 whole entry): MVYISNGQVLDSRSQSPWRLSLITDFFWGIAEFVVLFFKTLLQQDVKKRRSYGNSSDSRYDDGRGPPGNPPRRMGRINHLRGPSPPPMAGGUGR
Sequence of UniProt Q9Y3B9 (Q9Y3B9 whole entry): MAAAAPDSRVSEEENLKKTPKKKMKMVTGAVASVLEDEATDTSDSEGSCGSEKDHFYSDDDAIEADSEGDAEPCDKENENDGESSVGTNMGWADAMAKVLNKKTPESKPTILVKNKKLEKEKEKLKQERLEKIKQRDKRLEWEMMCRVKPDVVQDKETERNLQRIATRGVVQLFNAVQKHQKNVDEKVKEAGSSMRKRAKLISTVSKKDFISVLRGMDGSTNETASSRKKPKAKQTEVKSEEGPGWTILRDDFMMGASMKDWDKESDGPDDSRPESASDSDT
Sequence of UniProt Q969F1 (Q969F1 whole entry): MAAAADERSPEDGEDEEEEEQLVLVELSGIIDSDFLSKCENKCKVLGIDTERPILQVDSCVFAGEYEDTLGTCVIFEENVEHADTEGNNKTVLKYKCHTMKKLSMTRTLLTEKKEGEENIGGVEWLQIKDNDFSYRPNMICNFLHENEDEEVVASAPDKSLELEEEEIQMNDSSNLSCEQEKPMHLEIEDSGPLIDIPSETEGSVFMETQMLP

Row | Target | thermal stability z-score [1, 3] | thermal stability z-score ([1]; arsenate co-treatment: none) | thermal stability z-score [2]
1 | PLEKHO2 (UniProt Q8TD55) | 0.146 | 0.015 | -0.257
2 | VDAC3 (UniProt Q9Y277) | 0.0571 | 0.18 | 0.848
3 | EEF1D (UniProt P29692) | 0.303 | 0.257 | -0.0726
4 | EXOSC5 (UniProt Q9NQT4) | 1.79 | 1.03 | -0.564
5 | MLKL (UniProt Q8NB16) | 0.561 | 0.379 | -1.45
6 | ANKRD13A (UniProt Q8IZ07) | 0.0649 | -0.0472 | -0.0666
7 | SYAP1 (UniProt Q96A49) | 0.0475 | -0.0361 | 0.679
8 | SIL1 (UniProt Q9H173) | -3.15 | -2.4 | 1.44
9 | FAM60A (UniProt Q9NP50) | 0.0806 | 0.262 | -0.681
10 | COL12A1 (UniProt Q99715) | -3.01 | -2.92 | 0.59
11 | MRAS (UniProt O14807) | 0.488 | -0.67 | 0.0682
12 | EXOSC1 (UniProt Q9Y3B2) | 0.0998 | -1.26 | -0.615
13 | TJP2 (UniProt Q9UDY2) | -0.259 | -0.231 | 0.438
14 | MED14 (UniProt O60244) | -0.0798 | -0.176 | -0.2
15 | RILP (UniProt Q96NA2) | -0.0778 | 0.284 | 0.0653
16 | MSH6 (UniProt P52701) | 0.0377 | 0.218 | -0.142
17 | PTGR2 (UniProt Q8N8N7) | 2.64 | 1.03 | 0.744
18 | POLRMT (UniProt O00411) | 0.314 | -0.744 | -0.331
19 | PGAM1 (UniProt P18669) | -0.0445 | 0.244 | -0.0878
20 | ARHGAP18 (UniProt Q8N392) | 1.13 | 1.59 | 1.21
21 | DYNC1I2 (UniProt Q13409) | 0.0629 | 0.266 | -0.19
22 | GTF3C6 (UniProt Q969F1) | 0.05 | -0.0491 | -0.175
23 | CLPP (UniProt Q16740) | 0.049 | -0.299 | 0.151
24 | NUDT3 (UniProt O95989) | 0.511 | 0.241 | -0.213

Row | Target | thermal stability z-score [1, 3] | thermal stability z-score ([1]; arsenate co-treatment: none) | thermal stability z-score [2]
25 | TAF2 (UniProt Q6P1X5) | -0.03 | -0.0592 | -0.179
26 | THADA (UniProt Q6YHU6) | -0.42 | -0.349 | -0.361
27 | TMOD3 (UniProt Q9NYL9) | -0.494 | 0.384 | 0.732
28 | IGSF3 (UniProt O75054) | 0.454 | -0.247 | -0.196
29 | PNN (UniProt Q9H307) | 1.03 | 0.507 | -0.467
30 | PMM2 (UniProt O15305) | -0.186 | 0.197 | 1.4
31 | GART (UniProt P22102) | 0.221 | -0.0107 | -0.419
32 | SIGMAR1 (UniProt Q99720) | 0.596 | 0.0865 | 0.687
33 | DBN1 (UniProt Q16643) | 0.625 | -0.407 | -0.684
34 | NDUFB11 (UniProt Q9NX14) | 0.566 | 0.514 | 0.94
35 | FUK (UniProt Q8N0W3) | 0.775 | 0.461 | 0.0734
36 | ALYREF (UniProt Q86V81) | 0.585 | 0.0941 | -0.0562
37 | GNL3 (UniProt Q9BVP2) | -0.0335 | 0.0515 | -0.437
38 | SELK (UniProt Q9Y6D0) | 0.406 | -0.759 | 0.22
39 | SRPK1 (UniProt Q96SB4) | 0.669 | -0.433 | 0.291
40 | TFIP11 (UniProt Q9UBB9) | -0.0949 | -0.0621 | -0.187
41 | PPM1H (UniProt Q9ULR3) | -1.19 | 0.00662 | -1.01
42 | SLC4A7 (UniProt Q9Y6M7) | -0.0849 | 0.00104 | -0.747
43 | SART1 (UniProt O43290) | 0.898 | 0.374 | -2.05
44 | PHLDB1 (UniProt Q86UU1) | -0.559 | 0.362 | 0.2
45 | PNPT1 (UniProt Q8TCS8) | -0.261 | -0.271 | 0.418
46 | STIM2 (UniProt Q9P246) | -0.102 | -0.0704 | -0.103
47 | GLUD1 (UniProt P00367) | -1.37 | -0.412 | -0.578
48 | MTAP (UniProt Q13126) | 0.145 | -1.41 | -1.77

Row | Target | thermal stability z-score [1, 3] | thermal stability z-score ([1]; arsenate co-treatment: none) | thermal stability z-score [2]
49 | WDFY3 (UniProt Q8IZQ1) | -0.0589 | 0.0954 | -0.0794
50 | SSB (UniProt P05455) | -0.542 | 0.233 | 0.363
51 | STX10 (UniProt O60499) | -0.387 | -0.00805 | 0.516
52 | LAMTOR1 (UniProt Q6IAA8) | 1.14 | 0.655 | 0.827
53 | ENO1 (UniProt P06733) | 0.588 | 0.278 | -0.0281
54 | ATIC (UniProt P31939) | 0.0982 | -0.0656 | -1.07
55 | NUP54 (UniProt Q7Z3B4) | 0.342 | 0.00636 | 0.309
56 | SLCO4A1 (UniProt Q96BD0) | 0.0123 | -0.101 | 0.0663
57 | TCEB3 (UniProt Q14241) | -0.0069 | 0.00902 | 0.0043
58 | TTC21B (UniProt Q7Z4L5) | -0.223 | -0.505 | -0.277
59 | MKI67 (UniProt P46013) | 1.7 | 1.37 | 0.155
60 | SPAST (UniProt Q9UBP0) | -0.179 | 0.818 | 0.604
61 | DNAJC17 (UniProt Q9NVM6) | 0.0174 | 0.0121 | -0.299
62 | PREPL (UniProt Q4J6C6) | 0.836 | 0.783 | -0.177
63 | NECAP1 (UniProt Q8NC96) | 0.133 | 0.451 | -0.194
64 | TAX1BP3 (UniProt O14907) | 0.0819 | -0.232 | 0.424
65 | ADCK1 (UniProt Q86TW2) | 0.36 | -0.122 | -0.00585
66 | RRP15 (UniProt Q9Y3B9) | -0.279 | -0.438 | -0.817
67 | PFKFB3 (UniProt Q16875) | -0.179 | -0.149 | 0.00649
68 | DAG1 (UniProt Q14118) | -0.341 | -0.236 | 0.184
69 | ZFC3H1 (UniProt O60293) | 0.164 | -0.0359 | -0.434
70 | RIPK2 (UniProt O43353) | -0.255 | 0.45 | -0.644
71 | RBBP5 (UniProt Q15291) | 1.23 | 0.518 | -0.769
